This note sets out measurements from patent EP0771196B1, “EXCITATORY AMINO ACID RECEPTOR ANTAGONISTS” (ELI LILLY AND COMPANY, priority 1994, dated 1996).

Molecules are shown by their SMILES. Marks after values point to notes of the source that are not given here.

For orientation: IC50 means the concentration that inhibits the measured activity by half. A high value points to weaker potency.

In one experiment the test system is metabotropic glutamate receptors. Kind of experiment: Displacement of 1S,3R-ACPD-sensitive [3H]glutamate binding to rat brain cell membranes. The conditions noted are these: crude membranes of rat forebrain; 10 µM compound. Here is the method:
The binding of [^3H]glutamate was conducted with crude membranes of rat forebrain as described by Schoepp and True. Schoepp and True, Neuroscience Lett., 145, 100-104 (1992) and True and Schoepp, Society for Neuroscience Abstracts, 19, 470 (1993). IC50 values for the inhibition of [^3H]glutamate binding, or the percent displacement of [^3H]glutamate binding at a 10 µM concentration, of the formula I compound, is shown in Table II.
As to `NC(CCC1CCNCC1)(C(=O)O)C1CC1C(=O)O` (stereo not drawn) [Example 45, 2SR- and 2RS-2-amino-2-(1SR,2SR-2-carboxycyclopropan-1-yl)-2-(piperidin-4-yl)butanoic acid], the “ACPD-Sensitive [^3H]Glutamate Binding % Displacement at 10 µM” value is “(42%)”.

`N[C@](CC(c1ccccc1)c1ccccc1)(C(=O)O)[C@@H]1C[C@H]1C(=O)O` [Example 66, 2S-2-amino-2-(1R,2R-2-carboxycyclopropan-1-yl)-4,4-diphenylbutanoic acid]: the “ACPD-Sensitive [^3H]Glutamate Binding % Displacement at 10 µM” value is reported as “(36%)”.

For the compound `CC(C)C(N)(C(=O)O)[C@H]1C[C@@H]1C(=O)O` (mixture of isomers) [Example 14, 2SR- and 2RS-2-amino-2-(1SR,2SR-2-carboxycyclopropan-1-yl)-3-methylbutanoic acid], the “ACPD-Sensitive [^3H]Glutamate Binding % Displacement at 10 µM” value is listed as “(17%)”.

Still in this experiment, the particulars now being: crude membranes of rat forebrain; 10 µM compound; 10 µM.
`Cc1cccc(CCC(N)(C(=O)O)C2CC2C(=O)O)c1` [Example 67, 2R-2-amino-2-(1S,2S-2-carboxycyclopropan-1-yl)-4-(3-methylphenyl)butanoic acid]: the “ACPD-Sensitive [^3H]Glutamate Binding % Displacement at 10 µM” value is “(22%)^b”.

As to `Cc1cccc(CCC(N)(C(=O)O)C2CC2C(=O)O)c1` (stereo not drawn) [Example 69, 2R-2-amino-2-(1R ,2R-2-carboxycyclopropan-1-yl)-4-(3-methylphenyl)butanoic acid], the “ACPD-Sensitive [^3H]Glutamate Binding % Displacement at 10 µM” value is “(13%)^d”.

The same experiment, now with this note: crude membranes of rat forebrain; inhibition of [3H]glutamate binding.
In turn, `CCCC(N)(C(=O)O)C1CC1C(=O)O` (stereo not drawn) [Example 10, 2SR- and 2RS-2-amino-2-(1SR,2SR-2-carboxycyclopropan-1-yl)pentanoic acid] returned an IC50 of 2100 nM. In other words, the single-digit micromolar range.

Take `NC(CCc1cccc(O)c1)(C(=O)O)C1CC1C(=O)O` (stereo not drawn) [Example 30, 2SR- and 2RS-2-amino-2-(1SR,2SR-2-carboxycyclopropan-1-yl)-4-(3-hydroxyphenyl)butanoic acid]: the IC50 amounted to 80 nM.

Regarding `NC(CCC1CCCCC1)(C(=O)O)C1CC1C(=O)O` (stereo not drawn) [Example 44, 2SR- and 2RS-2-amino-2-(1SR,2SR-2-carboxycyclopropan-1-yl)-4-(cyclohexyl)butanoic acid], the IC50 turned out to be 380 nM.

With `NC(CCc1ccccc1F)(C(=O)O)[C@H]1C[C@@H]1C(=O)O` (mixture of isomers) [Example 55, 2SR- and 2RS-2-amino-2-(1SR,2SR-2-carboxycyclopropan-1-yl)-4-(2-fluorophenyl)butanoic acid], the IC50 was determined as 120 nM.

Compound `CC(CC(N)(C(=O)O)C1CC1C(=O)O)c1ccccc1` (stereo not drawn) [Example 34, 2SR,5SR-, 2SR,5RS-, 2RS,5SR- and 2RS,5RS-2-amino-2-(1SR,2SR-2-carboxycyclopropan-1-yl)-4-methyl-4-phenylbutanoic acid] had an IC50 of 120 nM.

`NC(CCc1ccc2ccccc2c1)(C(=O)O)[C@H]1C[C@@H]1C(=O)O` (mixture of isomers) [Example 19, 2SR- and 2RS-2-amino-2-(1SR,2SR-2-carboxycyclopropan-1-yl)-4-(naphth-2-yl)butanoic acid] came in with an IC50 of 2800 nM.

In the case of `COc1ccc(OC)c(CCC(N)(C(=O)O)C2CC2C(=O)O)c1` (stereo not drawn) [Example 32, 2SR- and 2RS-2-amino-2-(1SR,2SR-2-carboxycyclopropan-1-yl)-4-(2,5-dimethoxyphenyl)butanoic acid], the IC50 came to 170 nM. This IC50 is about 16-fold lower than that of the compound before.

Compound `NC(CCC12CC3CC(CC(C3)C1)C2)(C(=O)O)C1CC1C(=O)O` (stereo not shown) [Example 36] showed an IC50 of 200 nM.

For `NC(CCc1ccccc1)(C(=O)O)C1CC1C(=O)O` (stereo not drawn) [Example 2, 2SR- and 2RS-2-amino-2-(1SR,2SR-2-carboxycyclopropan-1-yl)-4-phenylbutanoic acid], the IC50 was 320 nM.

`NC(CCc1ccccc1Oc1ccccc1)(C(=O)O)[C@H]1C[C@@H]1C(=O)O` (mixture of isomers) [Example 84, 2SR- and 2RS-2-amino-2-(1SR,2SR-2-carboxycyclopropan-1-yl)-4-(2-phenoxyphenyl)butanoic acid] yielded an IC50 of 360 nM. This IC50 and that of the compound before are within 1.5-fold of each other.

Turning to `NC(CC1CCCCC1)(C(=O)O)[C@H]1C[C@@H]1C(=O)O` (mixture of isomers) [Example 62, 2SR- and 2RS-2-amino-2-(1SR,2SR-2-carboxycyclopropan-1-yl)-3-cyclohexylpropanoic acid], the IC50 is 230 nM. This IC50 is about 1.6-fold lower than that of the compound before.

On to `COc1cc(CCC(N)(C(=O)O)[C@H]2C[C@@H]2C(=O)O)cc(OC)c1` (mixture of isomers) [Example 53, 2SR- and 2RS-2-amino-2-(1SR,2SR-2-carboxycyclopropan-1-yl)-4-(3,5-dimethoxyphenyl)butanoic acid], for which the IC50 stood at 95 nM.

In the case of `N[C@](CC(c1ccccc1)c1ccccc1)(C(=O)O)[C@H]1C[C@@H]1C(=O)O` [Example 64, 2S-2-amino-2-(1S,2S-2-carboxycyclopropan-1-yl)-4,4-diphenylbutanoic acid], the IC50 is 35 ± 5 nM.

With `COc1cccc(CCC(N)(C(=O)O)[C@H]2C[C@@H]2C(=O)O)c1OC` (mixture of isomers) [Example 52, 2SR- and 2RS-2-amino-2-(1SR,2SR-2-carboxycyclopropan-1-yl)-4-(2,3-dimethoxyphenyl)butanoic acid], the IC50 amounted to 4900 nM.

For `NC(CCc1cccc(Oc2ccccc2)c1)(C(=O)O)[C@H]1C[C@@H]1C(=O)O` (mixture of isomers) [Example 60, 2SR- and 2RS-2-amino-2-(1SR,2SR-2-carboxycyclopropan-1-yl)-4-(3-phenoxyphenyl)butanoic acid], the IC50 amounted to 170 nM.

Take `NC(CCc1ccsc1)(C(=O)O)[C@H]1C[C@@H]1C(=O)O` (mixture of isomers) [Example 59, 2SR- and 2RS-2-amino-2-(1SR,2SR-2-carboxycyclopropan-1-yl)-4-(3-thienyl)butanoic acid]: the IC50 came to 210 nM. This IC50 and that of the compound before are within 1.5-fold of each other.

`NC(CC(c1ccccc1)c1ccccc1)(C(=O)O)C1CC1C(=O)O` (stereo not drawn) [Example 5, 2SR- and 2RS-2-amino-2-(1SR,2SR-2-carboxycyclopropan-1-yl)-4,4-diphenylbutanoic acid]: the IC50 was determined as 76 nM.

As for `CC(C)CCC(N)(C(=O)O)[C@H]1C[C@@H]1C(=O)O` (mixture of isomers) [Example 16, 2SR- and 2RS-2-amino-2-(1SR,2SR-2-carboxycyclopropan-1-yl)-5-methylhexanoic acid], the IC50 came to 1100 nM.

Consider `CC(C)CC(N)(C(=O)O)[C@H]1C[C@@H]1C(=O)O` (mixture of isomers) [Example 15, 2SR- and 2RS-2-amino-2-(1SR,2SR-2-carboxycyclopropan-1-yl)-4-methylpentanoic acid], for which the IC50 was 700 nM.

`Cc1cccc(CCC(N)(C(=O)O)C2CC2C(=O)O)c1` [Example 70, 2S-2-amino-2-(1R,2R,2-carboxycyclopropan-1-yl)-4-(3-methylphenyl)butanoic acid] registered an IC50 of 8100 nM. This IC50 is about 12-fold higher than that of the compound before.

On to `Cc1cccc(CCC(N)(C(=O)O)C2CC2C(=O)O)c1` [Example 68, 2S-2-amino-2-(1S,2S-2-carboxycyclopropan-1-yl)-4-(3-methylphenyl)butanoic acid], for which the IC50 turned out to be 12 ± 3 nM. Compared with the last compound, the IC50 is about 680-fold lower.

Turning to `NC(CCc1ccccc1O)(C(=O)O)C1CC1C(=O)O` (stereo not drawn) [Example 29, 2SR- and 2RS-2-amino-2-(1SR,2SR-2-carboxycyclopropan-1-yl)-4-(2-hydroxyphenyl)butanoic acid], the IC50 was determined as 100 nM.

`Cn1cc(CCC(N)(C(=O)O)[C@H]2C[C@@H]2C(=O)O)c2ccccc21` (mixture of isomers) [Example 61, 2SR- and 2RS-2-amino-2-(1SR,2SR-2-carboxycyclopropan-1-yl)-4-(1-methylindol-3-yl)butanoic acid]: the IC50 amounted to 280 nM.

`NC(CCc1ccccc1C(F)(F)F)(C(=O)O)[C@H]1C[C@@H]1C(=O)O` (mixture of isomers) [Example 57, 2SR- and 2RS-2-amino-2-(1SR,2SR-2-carboxycyclopropan-1-yl)-4-(2-(trifluoromethyl)phenyl)butanoic acid] showed an IC50 of 480 nM. Compared with the last compound, the IC50 is about 1.7-fold higher.

For `N[C@@](CC(c1ccccc1)c1ccccc1)(C(=O)O)[C@H]1C[C@@H]1C(=O)O` [Example 63, 2R 2-amino-2-(1S,2S-2-carboxycyclopropan-1-yl)-4,4-diphenylbutanoic acid], the IC50 came to 2000 nM.

In turn, `NC(CCc1ccc(Cl)c(Cl)c1)(C(=O)O)C1CC1C(=O)O` (stereo not drawn) [Example 48, 2SR- and 2RS-2-amino-2-(1SR,2SR-2-carboxycyclopropan-1-yl)-4-(3,4-dichlorophenyl)butanoic acid] gave an IC50 of 38 nM.

For `NC(CCc1ccc(Br)cc1)(C(=O)O)[C@H]1C[C@@H]1C(=O)O` (mixture of isomers) [Example 82, 2SR- and 2RS-2-amino-2-(1SR,2SR-2-carboxycyclopropan-1-yl)-4-(4-bromophenyl)butanoic acid], the IC50 turned out to be 680 nM.

`COc1ccc(CCC(N)(C(=O)O)C2CC2C(=O)O)cc1` (stereo not drawn) [Example 28, 2SR- and 2RS-2-amino-2-(1SR,2SR-2-carboxycyclopropan-1-yl)-4-(4-methoxyphenyl)butanoic acid] showed a half-inhibitory concentration (IC50) of 1400 nM.

The compound `NC(CCc1cccc(Br)c1)(C(=O)O)C1CC1C(=O)O` (stereo not drawn) [Example 38, 2SR- and 2RS-2-amino-2-(1SR,2SR-2-carboxycyclopropan-1-yl)-4-(3-bromophenyl)butanoic acid] showed an IC50 of 55 nM.

For `NC(CCCCc1ccccc1)(C(=O)O)C1CC1C(=O)O` (stereo not drawn) [Example 4, 2SR- and 2RS-2-amino-2-(1SR,2SR-2-carboxycyclopropan-1-yl)-6-phenylhexanoic acid], the 50% inhibitory concentration (IC50) is 2300 nM. This IC50 is about 42-fold higher than that of the compound before.

On to `NC(CCc1cccc(-c2ccccc2)c1)(C(=O)O)[C@H]1C[C@@H]1C(=O)O` (mixture of isomers) [Example 76, 2SR- and 2RS-2-amino-2-(1SR,2SR-2-carboxycyclopropan-1-yl)-4-(3-biphenyl)butanoic acid], for which the IC50 amounted to 510 nM. Compared with the last compound, the IC50 is about 4.5-fold lower.

`NC(CCc1cccc(C(F)(F)F)c1)(C(=O)O)C1CC1C(=O)O` (stereo not drawn) [Example 37, 2SR- and 2RS-2-amino-2-(1SR,2SR-2-carboxycyclopropan-1-yl)-4-(3-(trifluoromethyl)phenyl)butanoic acid] gave an IC50 of 64 nM.
